Legend:
D5 = D5 (Homo sapiens, UniProt P21918); test: D5R β-arrestin recruitment assay (DiscoverX PathHunter, CHO cells); format: cell-based; set-up: host or cells: CHO-K1; settings: for DA + 50 μM PAM, Fold Change EC50: fold change of DA EC50 with 50 μM PAM, Dopamine D5-β-arrestin Assay; for D5 Beta-Arrestin: DA + 50 μM PAM, Fold Change EC50: fold change of dopamine EC50, 50 μM compound; for PAM activity at the D5 receptor / fold change of dopamine EC50 for β-arrestin recruitment to D5R / Dopamine D5-β-arrestin Assay: DA + 50 μM PAM, Fold Change EC50: 50 μM compound; for Dopamine D5-β-arrestin Assay: DA + 50 μM PAM, Fold Change EC50: Table 6
Chain of D5 (P21918 whole entry): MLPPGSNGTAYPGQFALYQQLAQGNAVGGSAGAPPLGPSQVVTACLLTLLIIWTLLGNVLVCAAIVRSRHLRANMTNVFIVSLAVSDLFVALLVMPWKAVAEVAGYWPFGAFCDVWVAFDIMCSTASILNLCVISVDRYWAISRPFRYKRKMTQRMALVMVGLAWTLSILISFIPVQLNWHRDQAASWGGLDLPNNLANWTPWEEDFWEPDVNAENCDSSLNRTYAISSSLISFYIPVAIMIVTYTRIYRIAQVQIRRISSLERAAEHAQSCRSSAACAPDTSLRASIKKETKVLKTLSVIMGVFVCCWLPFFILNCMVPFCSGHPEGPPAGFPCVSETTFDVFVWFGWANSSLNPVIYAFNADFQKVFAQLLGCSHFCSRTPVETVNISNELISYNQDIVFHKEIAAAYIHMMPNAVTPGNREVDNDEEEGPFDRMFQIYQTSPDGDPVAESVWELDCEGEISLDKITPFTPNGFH
Description: (§1) β-arrestin Recruitment Assay. […] Following 18-24 h of incubation, the cells were treated with the indicated concentrations of compound in PBS buffer containing 0.2 mM sodium metabisulfite, and incubated at 37° C. for 90 min. DiscoverX reagent was added to cells according to the manufacturer's protocol, followed by a 60 min incubation in the dark at room temperature. Luminescence was measured on a Hamamatsu FDSS μ-Cell reader (Hamamatsu, Bridgewater, N.J.) and data were collected using the FDSS software.
Each PAM was also examined in the absence of DA as an agonist, as indicated.

human D1R = human D1R (Homo sapiens, UniProt P21728); test: D1R β-arrestin recruitment assay (DiscoverX PathHunter, CHO-K1 cells); settings: for DA + 50 μM PAM, Fold Change EC50: fold change of DA EC50 with 50 μM PAM, Dopamine D1-β-arrestin Assay; for Dopamine D1-β-arrestin Assay: DA + 50 μM PAM, Fold Change EC50: Table 5, 50 μM compound
Chain of human D1R (P21728 whole entry): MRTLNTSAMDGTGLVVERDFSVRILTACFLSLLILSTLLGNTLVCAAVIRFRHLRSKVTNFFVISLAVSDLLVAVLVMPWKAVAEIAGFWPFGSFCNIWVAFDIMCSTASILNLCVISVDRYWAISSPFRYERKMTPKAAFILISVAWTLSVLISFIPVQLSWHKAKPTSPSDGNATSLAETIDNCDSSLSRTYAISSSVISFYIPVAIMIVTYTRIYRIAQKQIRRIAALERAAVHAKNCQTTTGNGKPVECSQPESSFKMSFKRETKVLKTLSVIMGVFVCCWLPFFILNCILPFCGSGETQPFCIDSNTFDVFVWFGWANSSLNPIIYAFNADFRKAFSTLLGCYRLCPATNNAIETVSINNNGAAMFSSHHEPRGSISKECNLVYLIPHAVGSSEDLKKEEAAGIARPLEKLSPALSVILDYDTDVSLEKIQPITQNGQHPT
Description: The DiscoverX PathHunter β-Arrestin Assay was used to measure β-arrestin reuitment to the D1R following the manufacturer's instructions.

D4R = biological target: T1, D4R (Homo sapiens, UniProt P21917); test: D4 β-arrestin recruitment assay (DiscoverX PathHunter, CHO-K1 cells); format: cell-based; set-up: inferred from the same PathHunter system described for D1R and D5R; host or cells: CHO-K1; settings: for DA + 50 μM PAM, Fold Change EC50: fold change of DA EC50 with 50 μM PAM, Dopamine D4-β-arrestin Assay; for D4 Beta-Arrestin: DA + 50 μM PAM, Fold Change EC50: fold change of dopamine EC50, 50 μM compound; for Dopamine D4-β-arrestin Assay: DA + 50 μM PAM, Fold Change EC50: Table 7, 50 μM compound
T1 sequence (P21917 1-419): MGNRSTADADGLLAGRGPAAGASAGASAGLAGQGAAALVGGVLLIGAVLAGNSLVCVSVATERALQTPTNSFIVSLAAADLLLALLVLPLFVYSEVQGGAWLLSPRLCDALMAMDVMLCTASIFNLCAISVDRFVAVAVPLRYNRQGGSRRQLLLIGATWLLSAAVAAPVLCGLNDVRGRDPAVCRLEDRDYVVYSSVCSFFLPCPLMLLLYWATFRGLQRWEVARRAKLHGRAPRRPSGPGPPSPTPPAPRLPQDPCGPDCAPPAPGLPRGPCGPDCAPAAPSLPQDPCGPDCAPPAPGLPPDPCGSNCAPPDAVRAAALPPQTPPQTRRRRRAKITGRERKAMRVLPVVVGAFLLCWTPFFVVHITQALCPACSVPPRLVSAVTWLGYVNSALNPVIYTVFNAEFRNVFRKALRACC
Description: as §1, with “Assay. Agonist-mediated recruitment of β-arrestin-2 to all five DARs was determined using the DiscoveRx PathHunter complementation assay (DiscoverX Inc, Fremont, Calif.), as previously described (Free, et. al., 2014; Conroy, et. al., 2015).” for “Assay.”

SMILES | D5 Beta-Arrestin: DA + 50 μM PAM, Fold Change EC50 (D5) | D4 Beta-Arrestin: DA + 50 μM PAM, Fold Change EC50 (D4R) | Dopamine D5-β-arrestin Assay: DA + 50 μM PAM, Fold Change EC50 (D5) | Dopamine D1-β-arrestin Assay: DA + 50 μM PAM, Fold Change EC50 (human D1R) | Dopamine D4-β-arrestin Assay: DA + 50 μM PAM, Fold Change EC50 (D4R) | other results
CC(C)(C)C1CCc2c(sc(NC(=O)c3ccco3)c2C(N)=O)C1 (centres unmarked) [R4=NH2; R5=NHCO-2-furanyl; R6=t-Bu] |  |  |  |  |  | DA + 50 μM PAM, Fold Change EC50 (D5): 1.14; DA + 50 μM PAM, Fold Change EC50 (human D1R): 2.19; DA + 50 μM PAM, Fold Change EC50 (D4R): 1.17
Cn1c2ccccc2c(=O)c2c(=O)n(-c3cccc(Cl)c3)c(C3CCCC3)nc21 [Compound 14] | 0.91 | 1.90 |  |  |  | 
CC(C)Cc1nc2c(c(=O)c3ccccc3n2C)c(=O)n1-c1ccc(Cl)cc1 [Compound 6] | 0.81 | 0.47 |  |  |  | PAM activity at the D5 receptor (D5): none of these analogs have PAM activity; fold change of dopamine EC50 for β-arrestin recruitment to D5R (D5): 0.8 fold
Cn1c2ccccc2c(=O)c2c(=O)n(-c3ccc(Cl)cc3)c(CC3CCCCC3)nc21 [Compound 25] | 2.25 | 0.77 |  |  |  | 
COc1ccc(-n2c(C3CCCC3)nc3c(c(=O)c4ccccc4n3C)c2=O)cc1 [Compound 11] | 4.10 | 1.46 |  |  |  | 
Cn1c2ccccc2c(=O)c2c(=O)n(-c3ccccc3)c(-c3ccc(C(C)(C)C)cc3)nc21 [R1=Ph, R2=4-t-BuPh, R3=H, X=NMe] |  |  | 35.49 | 1.33 | 0.8 | 
CC(C)c1nc2c(c(=O)c3ccccc3n2C)c(=O)n1-c1ccc(F)cc1 [R1=4-FPh, R2=i-Propyl, R3=H, X=NMe] |  |  | 2.44 | 1.69 | 1.76 | 
COc1ccc2c(=O)c3c(=O)n(-c4ccccc4)c(-c4ccc(C)cc4)nc3oc2c1 [R1=Ph, R2=4-MePh, R3=MeO, X=O] |  |  | 4.94 | 0.85 | 0.99 | 
Cc1ccc(-n2c(C3CCCCC3)nc3c(c(=O)c4ccccc4n3C)c2=O)cc1 [Compound 2] | 2.64 | 0.64 |  |  |  | 
COc1ccc(-n2c(C3CCCCC3)nc3c(c(=O)c4ccccc4n3C)c2=O)cc1 [Compound 27] | 3.35 | 1.19 |  |  |  | 
Cc1ccccc1NC(=O)c1c(NC(=O)c2ccncc2)sc2c1CCC(C)C2 (centres unmarked) [R4=NH-2-MePH; R5=NHCO-4-pyridyl; R6=Me] |  |  |  |  |  | DA + 50 μM PAM, Fold Change EC50 (D4R): 1.09
CCCc1nc2c(c(=O)c3ccccc3n2C)c(=O)n1-c1cc(C)cc(C)c1 [R1=3,5-diMePh, R2=n-Propyl, R3=H, X=NMe] |  |  | 3.81 | 14.1 | 0.95 | 
Cn1c2ccccc2c(=O)c2c(=O)n(C3CCCCCC3)c(C3CCCCC3)nc21 |  |  | 1.71 | 3.85 | 0.95 | 
COc1ccc(-n2c(C3CCCCC3)nc3c(c(=O)c4ccccc4n3C)c2=O)cc1Cl [Compound 4] | 0.77 | 0.61 |  |  |  | 
Oc1cc2c(cc1O)[C@H]1c3ccccc3CN[C@@H]1CC2 (racemic) [dihydrexidine, reference compound] |  |  |  |  |  | Emax (human D1R; CHO-K1, read-out: dihydrexidine Emax): 70.5%
CC(C)Cn1c(-c2ccco2)nc2c(c(=O)c3ccccc3n2C)c1=O [R1=i-Bu, R2=2-furyl, R3=H, X=NMe] |  |  | 17.2 | 2.06 | 1.7 | 
CCCc1nc2c(c(=O)c3ccccc3n2C)c(=O)n1C1CCCCCC1 [R1=Cycloheptyl, R2=n-Propyl, R3=H, X=NMe] |  |  | 7.78 | 3.47 | 0.8 | 
COc1ccc(-n2c(CC(C)C)nc3c(c(=O)c4ccccc4n3C)c2=O)cc1Cl [Compound 8] | 1.53 | 1.20 |  |  |  | 
Cc1ccccc1NC(=O)c1c(NC(=O)c2ccncc2)sc2c1CCC(C)C2 (centres unmarked) [R4=NH-2-MePh; R5=NHCO-4-pyridyl; R6=Me] |  |  |  |  |  | DA + 50 μM PAM, Fold Change EC50 (D5): 0.83; DA + 50 μM PAM, Fold Change EC50 (human D1R): 2.09
CCCCCc1nc2c(c(=O)c3ccccc3n2C)c(=O)n1C1CCCCCC1 [R1=Cycloheptyl, R2=n-Pentyl, R3=H, X=NMe] |  |  | 3.89 | 1.12 | 1.46 | 
Cn1c2ccccc2c(=O)c2c(=O)n(Cc3ccccc3)c(-c3ccc(F)cc3)nc21 [R1=Bn, R2=4-FPh, R3=H, X=NMe] |  |  | 6.74 | 1.32 | 1.24 | 
Cn1c2ccccc2c(=O)c2c(=O)n(-c3ccc(Cl)cc3)c(C3CCCCC3)nc21 [Compound 3] | 2.03 | 0.61 |  |  |  | 
COc1ccc(-n2c(CC(C)C)nc3c(c(=O)c4ccccc4n3C)c2=O)cc1 [Compound 9] | 2.93 | 1.58 |  |  |  | 
COc1ccc(-n2c(C3CCCC3)nc3c(c(=O)c4ccccc4n3C)c2=O)cc1Cl [Compound 15] | 1.51 | 1.33 |  |  |  | 
Cc1ccc(-n2c(CC3CCCCC3)nc3c(c(=O)c4ccccc4n3C)c2=O)cc1 [Compound 26] | 1.15 | 1.40 |  |  |  | 
CC(C)Cc1nc2c(c(=O)c3ccccc3n2C)c(=O)n1-c1cccc(Cl)c1 [Compound 7] | 0.80 | 0.57 |  |  |  | PAM activity at the D5 receptor (D5): none of these analogs have PAM activity; fold change of dopamine EC50 for β-arrestin recruitment to D5R (D5): 0.8 fold
Cn1c2ccccc2c(=O)c2c(=O)[nH]c(C3CCCC3)nc21 [Compound 12] | 0.66 | 0.71 |  |  |  | 
Cc1ccc(-n2c(C3CCCC3)nc3c(c(=O)c4ccccc4n3C)c2=O)cc1 [Compound 10] | 3.11 | 1.33 |  |  |  | 
